Entries after “also recorded” stand apart in the source; their conditions may differ. Where a name gives a salt, the structure may show the parent alone.
Experiments:
[1] = system: optic nerve oligodendrocytes; assay: Whole-cell recording of ischaemic inward current in cultured oligodendrocytes (chemical ischaemia); type: cell-based, Sprague-Dawley rats
Description: After 2-4 days in vitro, cultures were composed of at least 98% 04/Ga1C^+ cells. No microglial cells were detected in these cultures. […] Cell death was determined 24h later using calcein-AM (Invitrogen) as previously described (Matute et al., 1997 Proc Natl Acad Sci U S A 94:8830-8835.). Antagonists were present during in vitro ischaemia and during the next 24h incubation period. […] Calcein was used to quantify the number of cells within the reading field. Fluorescence was measured as above and values were plotted as the percentage of DCFDA/calcein red-orange fluorescence versus control. […] Molecular Probes). […] The changes in the membrane potential were calculated as the red (emission at 590)/green (emission at 520) ratio in each condition and results were normalized to control. Whole cell recordings were performed at room temperature and at a holding membrane potential of -70 mV. Extracellular bath solution with a pH of 7.3 contained (in mM): […] Patch clamp pipettes (3-5 MΩ) were filled with internal solution at a pH of 7.3 containing (in mM): CsCI 140, CaC12 2, MgC12 2, HEPES 10, EGTA 11, Na-ATP 2. For electrophysiology monitoring, ischaemia was induced chemically by using the glycolytic blocker iodoacetate (1 mM) and the oxidative phosphorylation inhibitor antimycin (2.5 μM), and omitting glucose because recordings were performed in an open chamber where O2 can diffuse to the cells (Káradóttir et al., 2005). Recordings of ATP currents were performed in divalent cation-free extracellular solutions, obtained by omitting Ca^2+ and Mg^2+, to potentiate P2X-mediated responses (Matute et al., 1997 Proc Natl Acad Sci U S A 94:8830-8835.). […] Molecular Probes, Inc., Eugene, OR) in culture medium for 30 min at 37 °C. Experiments were carried out in a coverslip chamber continuously perfused with a buffer containing 20 mM HEPES, 2 mM CaC12, 10 mM glucose in HBSS at 1 ml/min. The perfusion chamber was mounted on the stage of a Zeiss inverted epifluorescence microscope (Axiovert 35), equipped with a 150 W xenon lamp Polychrome IV (TILL Photonics GMBH) and a Plan Neofluar 40x oil immersion objective (Zeiss, Germany). Cells were visualized with a high resolution digital B/W CCD camera (ORCA; Hamamatsu Photonics Iberica, Barcelona, Spain) and image acquisition and data analysis were carried out using the AquaCosmos software program (Hamamatsu Photonics Iberica). Images were acquired every 30 ms at 37°C and ischaemia was induced as above. […] At the end of the assay, in situ calibration was carried out with the successive addition of […] and 2M Tris/50 mM EGTA, pH 8.5. Data were analyzed with Excel and Prism software.

[2] = system: optic nerve oligodendrocytes; assay: Ca2+ imaging (fura-2) of oligodendrocytes during chemical ischaemia; type: cell-based, Sprague-Dawley rats
Description: After 2-4 days in vitro, cultures were composed of at least 98% 04/Ga1C^+ cells. No microglial cells were detected in these cultures. […] Cell death was determined 24h later using calcein-AM (Invitrogen) as previously described (Matute et al., 1997 Proc Natl Acad Sci U S A 94:8830-8835.). Antagonists were present during in vitro ischaemia and during the next 24h incubation period. […] Calcein was used to quantify the number of cells within the reading field. Fluorescence was measured as above and values were plotted as the percentage of DCFDA/calcein red-orange fluorescence versus control. […] Molecular Probes). […] The changes in the membrane potential were calculated as the red (emission at 590)/green (emission at 520) ratio in each condition and results were normalized to control. Whole cell recordings were performed at room temperature and at a holding membrane potential of -70 mV. Extracellular bath solution with a pH of 7.3 contained (in mM): […] Patch clamp pipettes (3-5 MΩ) were filled with internal solution at a pH of 7.3 containing (in mM): CsCI 140, CaC12 2, MgC12 2, HEPES 10, EGTA 11, Na-ATP 2. […] Data were analyzed with Excel and Prism software.

optic nerves = assay: Optic nerve ischaemia (OGD), tissue damage by LDH release; design: species or system rats
Description: After 1h OGD at 37°C, the medium was replaced with fresh solution containing glucose and equilibrated with 95% O2, 5% CO2 and the nerves were incubated for another 2h at 37°C to simulate reperfusion.

P2X7 = target: T1, P2X7 (Homo sapiens, UniProt Q99572); conditions: cited from earlier work
T1 sequence (Q99572 1-595): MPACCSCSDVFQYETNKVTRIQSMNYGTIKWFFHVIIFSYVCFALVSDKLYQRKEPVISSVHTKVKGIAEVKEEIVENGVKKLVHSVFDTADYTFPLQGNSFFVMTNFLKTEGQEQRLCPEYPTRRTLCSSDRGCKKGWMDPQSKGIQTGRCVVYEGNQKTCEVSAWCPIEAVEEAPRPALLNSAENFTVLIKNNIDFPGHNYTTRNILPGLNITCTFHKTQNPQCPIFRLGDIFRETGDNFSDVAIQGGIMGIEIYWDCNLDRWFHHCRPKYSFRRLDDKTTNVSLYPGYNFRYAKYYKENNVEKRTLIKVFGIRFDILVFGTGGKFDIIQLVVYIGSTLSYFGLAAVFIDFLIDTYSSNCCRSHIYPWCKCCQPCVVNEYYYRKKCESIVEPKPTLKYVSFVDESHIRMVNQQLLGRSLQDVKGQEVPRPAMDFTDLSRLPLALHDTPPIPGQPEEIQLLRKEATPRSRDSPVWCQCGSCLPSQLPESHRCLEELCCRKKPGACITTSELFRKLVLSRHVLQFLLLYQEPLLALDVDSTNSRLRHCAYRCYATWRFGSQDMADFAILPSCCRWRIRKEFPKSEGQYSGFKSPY

Nc1ncnc2c1ncn2[C@@H](C=O)O[C@@H](C=O)COP(=O)(O)OP(=O)(O)OP(=O)(O)O [o-ATP, the sodium salt of adenosine 5-triphosphate, oxidized with periodate]
ischaemic inward currents [1]: significantly reduced
increase in [Ca2+]i caused by ischaemia [2]: significantly blocked; also recorded: significantly reduced
OGD-induced damage at all developmental stages (optic nerves): decreased; also recorded: protected
ischaemia-induced damage to optic nerves (LDH release) (optic nerves): prevented; also recorded: reduced
recovery of axon function (CAP area) after the ischaemic insult (optic nerve): significantly improved
IC50 (P2X7): 5 µM
